In general, pIC50 refers to the IC50 on a negative log10 scale, so that one unit is a factor of ten. Read a low pIC50 as a large IC50.

The text below walks through data of patent US9029377B2, “Platelet-activating factor receptor antagonists” (Merck Sharp & Dohme Corp., priority 2009, dated 2015).

pIC50: −log10 of the molar value.

In this assay the target is PAFR (Homo sapiens, UniProt P25105). Put plainly: PAF Binding Assay (PAFR binding).
PAFR, sequence (P25105 whole entry): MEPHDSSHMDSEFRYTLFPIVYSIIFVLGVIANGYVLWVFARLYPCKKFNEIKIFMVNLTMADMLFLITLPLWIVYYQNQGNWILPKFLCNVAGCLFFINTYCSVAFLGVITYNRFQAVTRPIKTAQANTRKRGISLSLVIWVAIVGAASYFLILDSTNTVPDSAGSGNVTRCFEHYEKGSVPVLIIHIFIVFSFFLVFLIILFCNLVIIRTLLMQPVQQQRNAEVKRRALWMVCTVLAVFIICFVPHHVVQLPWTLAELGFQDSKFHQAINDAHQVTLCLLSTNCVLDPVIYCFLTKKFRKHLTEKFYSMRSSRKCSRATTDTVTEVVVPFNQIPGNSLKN
For the compound “2-ethyl-N-[(1S,3R)-3-(4H-1,2,4-triazol-4-yl)cyclohexyl]biphenyl-4-sulfonamide [Compound 2Af]”, the pIC50 is 7.82. The same measure for “3-(2-aminopyrimidin-4-yl)-N-[(1R,5S)-3,3-difluoro-5-(3-methyl-4H-1,2,4-triazol-4-yl)cyclohexyl]-5-(trifluoromethyl)benzenesulfonamide [Compound 9Ab]”: 7.82; for “3-(2-cyclopropylpyrazolo[1,5-a]pyrimidin-7-yl)-N-[(1R,5S)-3,3-difluoro-5-(3-methyl-4H-1,2,4-triazol-4-yl)cyclohexyl]-5-(trifluoromethyl)benzenesulfonamide [Compound 9Af]”: 8.29. The same measure for “3-(2-cyclopropylpyrimidin-4-yl)-N-[(1R,5S)-3,3-difluoro-5-(3-methyl-4H-1,2,4-triazol-4-yl)cyclohexyl]-5-(trifluoromethyl)benzenesulfonamide [Compound 9Aa]”: 8.66. The figure for “3-[1,2,4]triazolo[1,5-a]pyrimidin-7-yl-N-[(1R,5S)-3,3-difluoro-5-(3-methyl-4H-1,2,4-triazol-4-yl)cyclohexyl]-5-(trifluoromethyl)benzenesulfonamide [Compound 9Ac]” is 7.07; for “3-bromo-N-[(1S,3R)-3-(4H-1,2,4-triazol-4-yl)cyclohexyl]-5-(trifluoromethyl)benzenesulfonamide [Compound 3b]” it is 9.05; for “3-ethyl-5-imidazo[1,2-a]pyridin-8-yl-N-[(1S,3R)-3-(4H-1,2,4-triazol-4-yl)cyclohexyl]-5-(trifluoromethyl)benzenesulfonamide [Compound 3Bau]” it is 9.10. Take “3-isoxazol-5-yl-N-[(1R,5S)-3,3-difluoro-5-(3-methyl-4H-1,2,4-triazol-4-yl)cyclohexyl]-5-(trifluoromethyl)benzenesulfonamide [Compound 9Ad]”: the pIC50 was 7.47.

For “4-(5-cyclopropyl-1,2,4-oxadiazol-3-yl)-N-[(1R,5S)-3,3-difluoro-5-(4H-1,2,4-triazol-4-yl)cyclohexyl]-3-ethylbiphenyl-4-sulfonamide [Compound 2Cy]”, the negative logarithm of the IC50 (pIC50) was 8.14. The figure for “4′-(difluoromethoxy)-N-[(1R,5S)-3,3-difluoro-5-(4H-1,2,4-triazol-4-yl)cyclohexyl]-2-ethylbenzenesulfonamide [Compound 2Caf]” is 7.92; for `O=S(=O)(N[C@H]1CCC[C@@H](c2cccnc2)C1)c1ccc(-c2noc(C3CC3)n2)cc1` (relative stereo) [Compound 8e, 4-(5-cyclopropyl-1,2,4-oxadiazol-3-yl)-N-(3-pyridin-cis-3-ylcyclohexyl)benzenesulfonamide] it is 8.72. In the case of `CCc1cc(-c2cccc(F)c2)ccc1S(=O)(=O)N[C@H]1CCC[C@@H](n2cnnc2)C1` [2 Am, 3-ethyl-3′-fluoro-N-[(1S,3R)-3-(4H-1,2,4-triazol-4-yl)cyclohexyl]benzenesulfonamide], the pIC50 is 7.48. The same measure for `O=S(=O)(N[C@@H]1C[C@H](n2cnnc2)CC(F)(F)C1)c1ccc(-c2ccc(OCC(F)(F)F)nc2)c(F)c1` [2 Gf, N-[(1R,5S)-3,3-difluoro-5-(4H-1,2,4-triazol-4-yl)cyclohexyl]-3-fluoro-4-[6-(2,2,2-trifluoroethoxy)pyridin-3-yl]benzenesulfonamide]: 8.36. The same measure for `O=S(=O)(N[C@H]1CCC[C@@H](n2cnnc2)C1)c1ccc(-c2noc(C(F)(F)F)n2)cc1C1CC1` [2 Kb, 2-cyclopropyl-N-[(1S,3R)-3-(4H-1,2,4-triazol-4-yl)cyclohexyl]-4-[5-(trifluoromethyl)-1,2,4-oxadiazol-3-yl]benzenesulfonamide]: 7.80; for `C=C(F)F.CCC(F)(F)c1nc(-c2ccc(S(=O)(=O)N[C@H]3CCC[C@@H](n4cnnc4)C3)c(C3CC3)c2)no1` [2 Kd, 2-cyclopropyl-4-[5-(1,1-difluoropropyl)-1,2,4-oxadiazol-3-yl]-N-[(1S,3R)-3-(4H-1,2,4-triazol-4-yl)cyclohexyl]benzenesulfonamide-1,1-difluoroethylene (1:1)]: 8.05. The same measure for `O=S(=O)(N[C@H]1CCC[C@@H](n2cnnc2)C1)c1cc(C(F)(F)F)cc(C(F)(F)F)c1` [2 Mb, N-[(1S,3R)-3-(4H-1,2,4-triazol-4-yl)cyclohexyl]-3,5-bis(trifluoromethyl)benzenesulfonamide]: 6.55; for `O=S(=O)(N[C@H]1CCC[C@@H](n2cnnc2)C1)c1cc(Cl)cc(Cl)c1` [2 Mh, 3,5-dichloro-N-[(1S,3R)-3-(4H-1,2,4-triazol-4-yl)cyclohexyl]benzenesulfonamide]: 6.71; for `O=S(=O)(N[C@H]1CCC[C@@H](n2cnnc2)C1)c1cc(-c2cncc3ccccc23)cc(C(F)(F)F)c1` [3 Ay, 3-isoquinolin-4-yl-N-[(1S,3R)-3-(4H-1,2,4-triazol-4-yl)cyclohexyl]-5-(trifluoromethyl)benzenesulfonamide]: 7.70.

`O=S(=O)(N[C@@H]1C[C@H](n2cnnc2)CC(F)(F)C1)c1cc(-c2ccc(F)cc2)cc(C(F)(F)F)c1` [3 Cc] gave a pIC50 of 7.44.

`CCc1cc(-c2noc(C3CC3)n2)ccc1S(=O)(=O)N[C@H]1CCC[C@@H](n2cnnc2C(F)(F)F)C1` [Compound 2Aa, 4-(5-cyclopropyl-1,2,4-oxadiazol-3-yl)-2-ethyl-N-{(1S,3R)-3-[3-(trifluoromethyl)-4H-1,2,4-triazol-4-yl]cyclohexyl}benzenesulfonamide] showed a negative-log IC50 (pIC50) of 8.26. The same measure for `CCc1cc(-c2ccccc2OC(F)(F)F)ccc1S(=O)(=O)N[C@H]1CCC[C@@H](n2cnnc2)C1` [Compound 2Aaa, 3-ethyl-N-[(1S,3R)-3-(4H-1,2,4-triazol-4-yl)cyclohexyl]2′-(trifluoromethoxy)biphenyl-4-sulfonamide]: 7.36. The figure for `CCc1cc(-c2c(OC)cccc2OC(F)(F)F)ccc1S(=O)(=O)N[C@H]1CCC[C@@H](n2cnnc2)C1` [Compound 2Aab, 3-ethyl-2′-methoxy-N-[(1S,3R)-3-(4H-1,2,4-triazol-4-yl)cyclohexyl]-6′-(trifluoromethoxy)biphenyl-4-sulfonamide] is 7.27; for `CCc1cc(-c2ccc(OC(F)(F)F)c(F)c2)ccc1S(=O)(=O)N[C@H]1CCC[C@@H](n2cnnc2)C1` [Compound 2Aac, 3-ethyl-3′-fluoro-N-[(1S,3R)-3-(4H-1,2,4-triazol-4-yl)cyclohexyl]-4′-(trifluoromethoxy)biphenyl-4-sulfonamide] it is 7.89; for `CCc1cc(-c2ccc(O)cc2)ccc1S(=O)(=O)N[C@H]1CCC[C@@H](n2cnnc2)C1` [Compound 2Aad, 3-ethyl-4′-hydroxy-N-[(1S,3R)-3-(4H-1,2,4-triazol-4-yl)cyclohexyl]biphenyl-4-sulfonamide] it is 7.44. `CCc1cc(-c2cccc3cccnc23)ccc1S(=O)(=O)N[C@H]1CCC[C@@H](n2cnnc2)C1` [Compound 2Aae, 2-ethyl-4-quinolin-8-yl-N-[(1S,3R)-3-(4H-1,2,4-triazol-4-yl)cyclohexyl]benzenesulfonamide] gave a pIC50 of 8.31. The same measure for `CCc1cc(-c2cccnc2O)ccc1S(=O)(=O)N[C@H]1CCC[C@@H](n2cnnc2)C1` [Compound 2Aag, 2-ethyl-4-(2-hydroxypyridin-3-yl)-N-[(1S,3R)-3-(4H-1,2,4-triazol-4-yl)cyclohexyl]benzenesulfonamide]: 6.78; for `CCc1cc(-c2ccc(OC(C)C)nc2)ccc1S(=O)(=O)N[C@H]1CCC[C@@H](n2cnnc2)C1` [Compound 2Aai, 2-ethyl-4-(6-isopropoxypyridin-3-yl)-N-[(1S,3R)-3-(4H-1,2,4-triazol-4-yl)cyclohexyl]benzenesulfonamide]: 8.74; for `CCc1cc(-c2ccc(OC(C)C)cc2)ccc1S(=O)(=O)N[C@H]1CCC[C@@H](n2cnnc2)C1` [Compound 2Aaj, 3-ethyl-4′-isopropoxy-N-[(1S,3R)-3-(4H-1,2,4-triazol-4-yl)cyclohexyl]biphenyl-4-sulfonamide]: 9.10. The figure for `CCc1cc(-c2ccc(OCC(F)(F)F)nc2)ccc1S(=O)(=O)N[C@H]1CCC[C@@H](n2cnnc2)C1` [Compound 2Aak, 2-ethyl-N-[(1S,3R)-3-(4H-1,2,4-triazol-4-yl)cyclohexyl]-4-[6-(2,2,2-trifluoroethoxy)pyridin-3-yl]benzenesulfonamide] is 9.15; for `CCc1cc(-c2ccc(F)nc2)ccc1S(=O)(=O)N[C@H]1CCC[C@@H](n2cnnc2)C1` [Compound 2Aam, 2-ethyl-4-(6-fluoropyridin-3-yl)-N-[(1S,3R)-3-(4H-1,2,4-triazol-4-yl)cyclohexyl]benzenesulfonamide] it is 7.09. The same measure for `CCc1cc(-c2cncc(OC)c2)ccc1S(=O)(=O)N[C@H]1CCC[C@@H](n2cnnc2)C1` [Compound 2Aan, 2-ethyl-4-(5-methoxypyridin-3-yl)-N-[(1S,3R)-3-(4H-1,2,4-triazol-4-yl)cyclohexyl]benzenesulfonamide]: 7.15. Take `CCc1cc(-c2ccc(NC(C)=O)cc2)ccc1S(=O)(=O)N[C@H]1CCC[C@@H](n2cnnc2)C1` [Compound 2Aao, N′-[3′-ethyl-4′-({[(1S,3R)-3-(4H-1,2,4-triazol-4-yl)cyclohexyl]amino}sulfonyl)biphenyl-4-yl]acetamide]: the negative logarithm of the IC50 (pIC50) was 7.24. Consider `CCc1cc(-c2ccc(OC(C(F)(F)F)C(F)(F)F)cc2)ccc1S(=O)(=O)N[C@H]1CCC[C@@H](n2cnnc2)C1` [Compound 2Aap, 3-ethyl-N-[(1S,3R)-3-(4H-1,2,4-triazol-4-yl)cyclohexyl]-4′-[2,2,2-trifluoro-1-(trifluoromethyl)ethoxy]biphenyl-4-sulfonamide], for which the negative-log IC50 (pIC50) was 8.77. The same measure for `CCc1cc(-c2ccc(OC3CCC3)nc2)ccc1S(=O)(=O)N[C@H]1CCC[C@@H](n2cnnc2)C1` [Compound 2Aaq, 4-[6-(cyclobutyloxy)pyridin-3-yl]-2-ethyl-N-[(1S,3R)-3-(4H-1,2,4-triazol-4-yl)cyclohexyl]benzenesulfonamide]: 9.10; for `CCc1cc(-c2cc(Cl)cn3ccnc23)ccc1S(=O)(=O)N[C@H]1CCC[C@@H](n2cnnc2)C1` [Compound 2Aat, 4-(6-chloroimidazo[1,2-a]pyridin-8-yl)-2-ethyl-N-[(1S,3R)-3-(4H-1,2,4-triazol-4-yl)cyclohexyl]benzenesulfonamide]: 8.66.
